Like-named read-outs stand apart in the source and are kept apart here.

In the experiment the target is T1, acetylcholine muscarinic M1 receptor (hM1) (Homo sapiens, UniProt P11229).
T1 construct: expressed in transfected cells; host or cells: CHOnfat (CHO cells, Geneticin selection)
T1 sequence (P11229 1-460): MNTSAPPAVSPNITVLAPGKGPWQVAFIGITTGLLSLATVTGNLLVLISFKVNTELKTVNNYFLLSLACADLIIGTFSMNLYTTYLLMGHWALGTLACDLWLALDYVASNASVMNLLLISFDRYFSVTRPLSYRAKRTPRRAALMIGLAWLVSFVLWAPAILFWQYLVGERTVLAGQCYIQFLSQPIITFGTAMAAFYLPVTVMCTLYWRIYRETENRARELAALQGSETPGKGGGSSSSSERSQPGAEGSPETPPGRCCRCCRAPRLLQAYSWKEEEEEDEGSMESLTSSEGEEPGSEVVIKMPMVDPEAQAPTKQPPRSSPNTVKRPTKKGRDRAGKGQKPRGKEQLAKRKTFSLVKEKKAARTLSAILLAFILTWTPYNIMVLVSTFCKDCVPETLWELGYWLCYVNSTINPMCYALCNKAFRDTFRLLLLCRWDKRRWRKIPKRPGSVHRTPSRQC
Briefly: FLIPR intracellular calcium assay for M1 positive allosteric modulator activity in CHOnfat/hM1 cells. It is filed as cell-based. Here is the method: The assay studies the effect of one or several concentrations of test compounds on basal or acetylcholine-stimulated Ca^2+ levels using FLIPR.
Compounds are prepared and subjected to a preincubation period of 4 min. Thereafter, a single EC20 concentration of acetylcholine is added to each well (3 nM final). The intracellular Ca^2+ level of each sample is measured and compared to an acetylcholine control to determine any modulatory activity.
Cells: CHOnfat/hM1, hM2, hM3 or hM4 cells are plated 24 hr before the assay at a density of 18,000 cells/well (100 μL) in a 384 well plate. CHOnfat/hM1 and CHOnfat/hM3 Growth Medium: 90% DMEM (Hi Glucose); 10% HI FBS; 2 mM L-glutamine; 0.1 mM NEAA; Pen-Strep; and 1 mg/ml Geneticin, are added. For M2Gqi5CHOnfat and M4Gqi5CHOnfat cells, an additional 600 ug/ml hygromycin is added.
Equipment: 384 well plate, 120 μL addition plate; 96-well Whatman 2 ml Uniplate Incubator, 37° C., 5% CO2; Skatron EMBLA-384 Plate Washer; Multimek Pipetting System; Genesis Freedom 200 System; Mosquito System; Temo Nanolitre Pipetting System; and FLIPR^384 Fluorometric Imaging Plate Reader System are used.
Buffers. Assay Buffer: […] Balanced Salt Solution, with 20 mM Hepes, 2.5 mM Probenecid (Sigma P-8761) first dissolved in 1 N NaOH, 1% Bovine Serum Albumin (Sigma A-9647). Dye Loading Buffer: Assay Buffer plus 1% Fetal Bovine Serum and Fluo-4AM/Pluronic Acid Mixture. 2 mM Fluo-4AM ester stock in DMSO (Molecular Probes F-14202) Concentration of 2 μM in buffer for a final concentration of 1 μM in Assay. 20% Pluronic Acid Solution stock, with concentration of 0.04% in Buffer, 0.02% in Assay.
65 μL of 2 mM Fluo-4AM are mixed with 130 μL of 20% Pluronic Acid. The resulting solution and 650 μL FBS is added to the assay buffer for a total volume of 65 mL. Positive Controls: 4-Br-A23187: 10 mM in DMSO; final concentration 10 μM. Acetylcholine: 10 mM in water, working stock at both 20 μM and 30 μM in assay buffer, final concentration of 10 μM. This is used to check the maximum stimulation of the CHOK1/hM1 cells. 20 μM (2×) acetylcholine is added in the preincubation part of the assay, and the 30 μM (3×) stock is added in the second part. (EC20) Acetylcholine: 10 mM in water, working stock of 9 nM (3×), and final concentration in assay is 3 nM. This is used after the preincubation with test compounds. Addition of the EC20 Acetylcholine to each well with a test compound will ascertain any modulator activity. 24 wells contain 3 nM Acetylcholine alone as a control.
Screening Plate Compounds are titrated in 96-well plates (columns 2-11), 100% DMSO, started at a concentration of 15 mM (150× stock concentration), and 3-fold serial dilutions using Genesis Freedom200 System. Four 96-well plates are combined into a 384-well plate using Mosquito Nanolitre Pipetting System by transferring 1 μl of serial diluted compounds to each well, and 1 mM acetylcholine (100× stock concentration) were added as a control. Using Temo, 49 μl assay buffer is added to each well of the 384-well plate right before assay.
In a 96-well Whatman 2 ml Uniplate, 9 nM Acetylcholine (3×) is pipetted into wells corresponding to the screening compounds, and into control wells. The 30 μM acetylcholine control (3×) is added into control wells, and the 3× agonist plate is transferred into a 384 well plate.
Cells are washed three times with 100 μL of buffer, leaving 30 μL of buffer in each well. Using Multimek, 30 μL of Dye Loading Buffer is added into each well and incubated at 37° C., 5% CO2 for up to one hr.
After 60 min, the cells are washed three times with 100 μL of buffer, leaving 30 μL of buffer in each well. The cell plate, screening plate, and agonist addition plates are placed on the platform in the FLIPR and the door closed. A signal test to check background fluorescence and basal fluorescence signal is performed. Laser intensity is adjusted if necessary. […]

[1] abbreviates: 4 min preincubation, then acetylcholine EC20 (3 nM final), calculated from FLIPR values, read-out: IP Value (inflection point).
The mark [2] stands for this setting: Table 1, unit inferred, potentiation of acetylcholine EC20 (3 nM final), read-out: H Pot.

For the compound `O=c1c2cc(Cc3ccc(Cl)nc3)c3cccnc3c2ccn1[C@H]1CCCC[C@@H]1O` [Example 1, 5-[(6-Chloropyridin-3-yl)methyl]-8-[(1S,2S)-2-hydroxycyclohexyl]-1,8-phenanthrolin-7(8H)-one], the EC50 under setting [1] was 23.5 nM. Still for that read-out and setting: the figure for `COc1ccc(Cc2cc3c(=O)n([C@H]4CCOC[C@@H]4O)ccc3c3ncccc23)cn1` [Example 2, 1,5-Anhydro-2,3-dideoxy-3-{5-[(6-methoxypyridin-3-yl)methyl]-7-oxo-1,8-phenanthrolin-8(7H)-yl}-L-threo-pentitol] is 20.6 nM. On the same count and under the same terms, the figure for `CSc1ccc(Cc2cc3c(=O)n([C@H]4CCCC[C@@H]4O)ccc3c3ncccc23)cn1` [Example 3] is 15 nM. On the same count and under the same terms, the figure for `O=c1c2cc(Cc3ccnc(OC(F)F)c3)c3cccnc3c2ccn1[C@H]1CCCC[C@@H]1O` [Example 4] is 72 nM. Turning to `Cn1cc(-c2ccc(Cc3cc4c(=O)n([C@H]5CCCC[C@@H]5O)ccc4c4ncccc34)cn2)cn1` [Example 5], under setting [1], the EC50 is 1.7 nM. With `O=c1c2cc(Cc3cccnc3)c3cccnc3c2ccn1[C@H]1CCCC[C@@H]1O` [Example 6, 8-[(1S,2S)-2-hydroxycyclohexyl]-5-(pyridin-3-ylmethyl)-1,8-phenanthrolin-7(8H)-one], under setting [1], the EC50 was 28.6 nM.

As for `COc1ccc(Cc2cc3c(=O)n([C@H]4CCCC[C@@H]4O)ccc3c3ncccc23)cc1` [Example 7], under setting [2], the EC50 is 21 nM. The same measure, in the same setting: next, `COc1ccc(Cc2cc3c(=O)n([C@H]4CCOC[C@@H]4O)ccc3c3ncccc23)cc1` [Example 8]: 6.2 nM; `COc1ccc(Cc2cc3c(=O)n([C@H]4CCCC[C@@H]4O)ccc3c3ncccc23)cn1` [Example 9]: 22.5 nM; `COc1cc(Cc2cc3c(=O)n([C@H]4CCCC[C@@H]4O)ccc3c3ncccc23)ccn1` [Example 10]: 21.9 nM. Still for that read-out and setting: next, `O=c1c2cc(Cc3ccnc(Cl)c3)c3cccnc3c2ccn1[C@H]1CCCC[C@@H]1O` [Example 11]: 20.5 nM; `Cc1cc(Cc2cc3c(=O)n([C@H]4CCCC[C@@H]4O)ccc3c3ncccc23)ccn1` [Example 12]: 24 nM.

For `O=c1c2cc(Cc3ccc(OC(F)F)nc3)c3cccnc3c2ccn1[C@H]1CCCC[C@@H]1O` [Example 13], the EC50 under setting [2] stood at 55 nM.

As for `Cc1cc(Cc2cc3c(=O)n([C@H]4CCOC[C@@H]4O)ccc3c3ncccc23)ccn1` [Example 14], the EC50 under setting [2] was 16.8 nM.

These data come from patent publication US8557992B2, “Heterocyclic fused phenanthrolinone M1 receptor positive allosteric modulators” (Merck Sharp & Dohme Corp., priority 2010, dated 2013).
